Laboratory results as given in patent publication US7550469B2, “Heterocyclic amide derivatives and their use as dopamine D3 receptor ligands” (Aventis Pharmaceuticals Inc., priority 2001, dated 2009).
Where two headings read alike, the source gives them in different places.

Target: T1, cloned human dopamine D3 receptors (Homo sapiens, UniProt P35462)
T1 construct: expressed in transfected cells; membrane homogenate
Test: [N-Methyl-3H]Spiroperidol binding to cloned human dopamine D3 receptors (Protocol 1)
Outline: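 Membranes from CHO cells stably expressing cloned human D3 receptor were used for [N-methyl-3H]spiroperidol (60-90 Ci/mmol) binding. Assay buffer was 0.05 M Tris HCl pH 7.7 with 120 mM NaCl, 5 mM KCl, 2 mM CaCl2 and 1 mM MgCl2, optionally 0.1% ascorbic acid; total ligand concentration calculated from added CPM.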

[1] = the 18th table, read-out: D3 Ki
[2] = the 16th table, read-out: D3 Ki
[3] = the 14th table, read-out: D3 Ki

T1 sequence (P35462 whole entry): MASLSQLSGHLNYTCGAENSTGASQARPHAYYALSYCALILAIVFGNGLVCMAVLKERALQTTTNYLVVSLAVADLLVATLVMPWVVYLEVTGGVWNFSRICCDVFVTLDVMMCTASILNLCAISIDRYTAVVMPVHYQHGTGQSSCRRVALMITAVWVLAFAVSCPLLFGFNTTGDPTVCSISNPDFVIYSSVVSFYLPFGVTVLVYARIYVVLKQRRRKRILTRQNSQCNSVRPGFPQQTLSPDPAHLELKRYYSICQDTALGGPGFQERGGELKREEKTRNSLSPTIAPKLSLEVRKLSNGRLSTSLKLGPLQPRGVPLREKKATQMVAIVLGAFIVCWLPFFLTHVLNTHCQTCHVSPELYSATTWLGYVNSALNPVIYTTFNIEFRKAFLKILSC

Ki [1] [nM]	Ki (read-out: D3K1) [nM]	Ki [3] [nM]	Structure (SMILES)	further results
	20		O=C(NC/C=C\CN1CCN(c2csc3cc(C(F)(F)F)ccc23)CC1)c1ccsc1 [compound 826332]	
	24		O=C(NC/C=C\CN1CCN(c2csc3cc(C(F)(F)F)ccc23)CC1)C1CCC1 [compound 826333]	
	21		O=C(NC/C=C\CN1CCN(c2csc3cc(C(F)(F)F)ccc23)CC1)C1CCCC1 [compound 826334]	
	42		O=C(NC/C=C\CN1CCN(c2csc3cc(C(F)(F)F)ccc23)CC1)c1ccccn1 [compound 826335]	
	41		O=C(NC/C=C\CN1CCN(c2csc3cc(C(F)(F)F)ccc23)CC1)c1cccnc1 [compound 826336]	
	29		O=C(NC/C=C\CN1CCN(c2csc3cc(C(F)(F)F)ccc23)CC1)c1ccccc1 [compound 826337]	
	93		O=C(NC/C=C\CN1CCN(c2csc3cc(C(F)(F)F)ccc23)CC1)c1cc(F)cc(F)c1 [compound 826338]	
	24		O=C(NC/C=C\CN1CCN(c2csc3cc(C(F)(F)F)ccc23)CC1)C1CCCCC1 [compound 826339]	
	73		O=C(NC/C=C\CN1CCN(c2csc3cc(C(F)(F)F)ccc23)CC1)c1cccc(Cl)c1 [compound 826340]	
	11		O=C(NC/C=C\CN1CCN(c2csc3cc(C(F)(F)F)ccc23)CC1)c1ccc(F)cc1 [compound 826341]	
	47		O=C(NC/C=C\CN1CCN(c2csc3cc(C(F)(F)F)ccc23)CC1)c1cccc(F)c1 [compound 826342]	
	53		N#Cc1cccc(C(=O)NC/C=C\CN2CCN(c3csc4cc(C(F)(F)F)ccc34)CC2)c1 [compound 826343]	
	29		COc1cccc(C(=O)NC/C=C\CN2CCN(c3csc4cc(C(F)(F)F)ccc34)CC2)c1 [compound 826344]	
	77		O=C(CCC1CCCC1)NC/C=C\CN1CCN(c2csc3cc(C(F)(F)F)ccc23)CC1 [compound 826345]	
	170		O=C(NC/C=C\CN1CCN(c2csc3cc(C(F)(F)F)ccc23)CC1)c1cccc(C(F)(F)F)c1 [compound 826346]	
	67		O=C(COc1ccccc1)NC/C=C\CN1CCN(c2csc3cc(C(F)(F)F)ccc23)CC1 [compound 826347]	
	61		O=C(NC/C=C\CN1CCN(c2csc3cc(C(F)(F)F)ccc23)CC1)c1ccc(OC(F)(F)F)cc1 [compound 826348]	
	180		O=C(COCc1ccccc1)NC/C=C\CN1CCN(c2csc3cc(C(F)(F)F)ccc23)CC1 [compound 826349]	
	2.1	2.1	Cn1c(C(=O)NCCCCCCN2CCN(c3csc4cc(C(F)(F)F)ccc34)CC2)cc2ccccc21 [compound 826739]	
	44	44	O=C(NCCCCCCN1CCN(c2csc3cc(C(F)(F)F)ccc23)CC1)c1c[nH]c2ccccc12 [compound 826740]	
	15	15	O=C(NCCCCCCN1CCN(c2csc3cc(C(F)(F)F)ccc23)CC1)c1n[nH]c2ccccc12 [compound 826743]	
	3.2	3.2	O=C(NCCCCCCN1CCN(c2csc3cc(C(F)(F)F)ccc23)CC1)c1cccc2ccccc12 [compound 826750]	
	2.8	2.8	O=C(NCCCCCCN1CCN(c2csc3cc(C(F)(F)F)ccc23)CC1)c1ccc2ccccc2c1 [compound 826751]	
	4.4	4.4	Cc1ccccc1C(=O)NCCCCCCN1CCN(c2csc3cc(C(F)(F)F)ccc23)CC1 [compound 826753]	
	3.2	3.2	O=C(NCCCCCCN1CCN(c2csc3cc(C(F)(F)F)ccc23)CC1)c1cc2ccccc2s1 [compound 826754]	
	23	23	O=C(NCCCCCN1CCN(c2csc3cc(C(F)(F)F)ccc23)CC1)c1cccc(Cl)c1 [compound 826765]	
	23	23	O=C(NCCCCCN1CCN(c2csc3cc(C(F)(F)F)ccc23)CC1)c1cccc2ccccc12 [compound 826768]	
	7	7	O=C(NCCCCCN1CCN(c2csc3cc(C(F)(F)F)ccc23)CC1)c1ccc2ccccc2c1 [compound 826769]	

More lines, now with the values behind:

Structure (SMILES)	Ki [1] [nM]	Ki (read-out: D3K1) [nM]	Ki [3] [nM]	further results
Cc1ccccc1C(=O)NCc1sccc1CN1CCN(c2csc3cc(F)ccc23)CC1 [compound 826306]	89			
COc1cccc(C(=O)NCc2sccc2CN2CCN(c3csc4cc(F)ccc34)CC2)c1 [compound 826307]	47			
O=C(NCc1sccc1CN1CCN(c2csc3cc(F)ccc23)CC1)c1ccc(-c2ccccc2)cc1 [compound 826308]	206			
CC(C)(C)c1ccc(C(=O)NCc2sccc2CN2CCN(c3csc4cc(F)ccc34)CC2)cc1 [compound 826309]	63			
O=C(NCc1sccc1CN1CCN(c2csc3cc(F)ccc23)CC1)c1cnc2ccccc2n1 [compound 826310]	203			
O=C(NCc1sccc1CN1CCN(c2csc3cc(F)ccc23)CC1)c1ccc(C(F)(F)F)cc1 [compound 826311]	74			
O=C(NCc1sccc1CN1CCN(c2csc3cc(F)ccc23)CC1)c1ccncc1 [compound 826312]	29			
O=C(NCc1sccc1CN1CCN(c2csc3cc(F)ccc23)CC1)c1cccnc1Cl [compound 826313]	134			
O=C(NCc1sccc1CN1CCN(c2csc3cc(F)ccc23)CC1)c1cccc2cc[nH]c12 [compound 826314]	46			
CS(=O)(=O)c1sc(C(=O)NCc2sccc2CN2CCN(c3csc4cc(F)ccc34)CC2)c2c1C=CCC2 [compound 826315]	31			
O=C(NCc1sccc1CN1CCN(c2csc3cc(F)ccc23)CC1)c1csc(-c2cccnc2)n1 [compound 826316]	32			
O=C(NCc1sccc1CN1CCN(c2csc3cc(F)ccc23)CC1)c1csnn1 [compound 826317]	48			
O=C(NCc1sccc1CN1CCN(c2csc3cc(F)ccc23)CC1)c1sccc1-n1cccc1 [compound 826318]	90			
O=C(NCc1sccc1CN1CCN(c2csc3cc(F)ccc23)CC1)c1cc(-c2ccco2)nc2ccccc12 [compound 826319]	273			
O=C(NCc1sccc1CN1CCN(c2csc3cc(F)ccc23)CC1)c1cc2sccc2s1 [compound 826320]	75.3			
Cc1nn(C)c2sc(C(=O)NCc3sccc3CN3CCN(c4csc5cc(F)ccc45)CC3)cc12 [compound 826321]	41.3			
O=C(NCc1sccc1CN1CCN(c2csc3cc(F)ccc23)CC1)c1cc2ccccc2[nH]1 [compound 826322]	296			
COc1ccc2[nH]c(C(=O)NCc3sccc3CN3CCN(c4csc5cc(F)ccc45)CC3)cc2c1 [compound 826323]	67			
Cn1c(C(=O)NCc2sccc2CN2CCN(c3csc4cc(F)ccc34)CC2)cc2ccccc21 [compound 826324]	120			
O=C(NCc1sccc1CN1CCN(c2csc3cc(F)ccc23)CC1)c1c[nH]c2ccccc12 [compound 826325]	54			

Structure (SMILES)	Ki [1] [nM]	Ki (read-out: D3K1) [nM]	Ki [3] [nM]	further results
O=C(NCc1sccc1CN1CCN(c2csc3cc(F)ccc23)CC1)c1cccc2[nH]ccc12 [compound 826326]	71			
O=C(NCc1sccc1CN1CCN(c2csc3cc(F)ccc23)CC1)c1ccc2[nH]ccc2c1 [compound 826327]	20			
O=C(NCc1sccc1CN1CCN(c2csc3cc(F)ccc23)CC1)c1ccc2cc[nH]c2c1 [compound 826328]	28			
O=C(NCc1sccc1CN1CCN(c2csc3cc(F)ccc23)CC1)c1n[nH]c2ccccc12 [compound 826329]	14			
CC1=C(C(=O)NCc2sccc2CN2CCN(c3csc4cc(F)ccc34)CC2)Cc2ccccc21 [compound 826330]	16			
O=C(NCc1sccc1CN1CCN(c2csc3cc(F)ccc23)CC1)c1cc2ccccc2o1 [compound 826331]	51			
O=C(NCCCCN1CCCN(c2csc3cc(F)ccc23)CC1)c1ccc2nonc2c1 [compound 826699]				Ki (Table 2, read-out: D3K1): 6.73 nM; Ki [2]: 6.73 nM
COc1ccc2[nH]c(C(=O)NCCCCCCN3CCN(c4csc5cc(C(F)(F)F)ccc45)CC3)cc2c1 [compound 826738]		6.1	6.1	
O=C(NCCCCCCN1CCN(c2csc3cc(C(F)(F)F)ccc23)CC1)c1cccc2[nH]ccc12 [compound 826741]		9.8	9.8	
O=C(NCCCCCCN1CCN(c2csc3cc(C(F)(F)F)ccc23)CC1)c1ccc2cc[nH]c2c1 [compound 826742]		1.7	1.7	
O=C(NCCCCCCN1CCN(c2csc3cc(C(F)(F)F)ccc23)CC1)c1cccs1 [compound 826746]		0.8	0.8	
O=C(NCCCCCCN1CCN(c2csc3cc(C(F)(F)F)ccc23)CC1)c1cccc(Cl)c1 [compound 826747]		0.12	0.12	
COc1cc(OC)cc(C(=O)NCCCCCCN2CCN(c3csc4cc(C(F)(F)F)ccc34)CC2)c1 [compound 826748]		4.9	4.9	
O=C(NCCCCCCN1CCN(c2csc3cc(C(F)(F)F)ccc23)CC1)c1ccc(OC(F)(F)F)cc1 [compound 826749]		8.7	8.7	
O=C(NCCCCCCN1CCN(c2csc3cc(C(F)(F)F)ccc23)CC1)c1cccc(C(F)(F)F)c1 [compound 826752]		14	14	
O=C(NCCCCN1CCCN(c2csc3cc(F)ccc23)CC1)c1c2ccccc2cc2ccccc12 [compound 826762]				Ki (Table 2, read-out: D3K1): 57 nM; Ki [2]: 57 nM
O=C(NCCCCCN1CCN(c2csc3cc(C(F)(F)F)ccc23)CC1)c1cccs1 [compound 826764]		7.8	7.8	
COc1cc(OC)cc(C(=O)NCCCCCN2CCN(c3csc4cc(C(F)(F)F)ccc34)CC2)c1 [compound 826766]		11	11	
O=C(NCCCCCN1CCN(c2csc3cc(C(F)(F)F)ccc23)CC1)c1ccc(OC(F)(F)F)cc1 [compound 826767]		14	14	
O=C(NCCCCCN1CCN(c2csc3cc(C(F)(F)F)ccc23)CC1)c1cccc(C(F)(F)F)c1 [compound 826770]		14	14	
